# Source: paper PMC5356226 (ACS chemical biology, 2016)
# Assays:
# hGLUT1 [1] = molecular target: T1, hGLUT1 (Homo sapiens, UniProt P11166); assay: [3H]-2-deoxy-D-glucose uptake inhibition assay in CHO-hGLUT1 cells; format: cell-based
# T1 sequence (P11166 1-492): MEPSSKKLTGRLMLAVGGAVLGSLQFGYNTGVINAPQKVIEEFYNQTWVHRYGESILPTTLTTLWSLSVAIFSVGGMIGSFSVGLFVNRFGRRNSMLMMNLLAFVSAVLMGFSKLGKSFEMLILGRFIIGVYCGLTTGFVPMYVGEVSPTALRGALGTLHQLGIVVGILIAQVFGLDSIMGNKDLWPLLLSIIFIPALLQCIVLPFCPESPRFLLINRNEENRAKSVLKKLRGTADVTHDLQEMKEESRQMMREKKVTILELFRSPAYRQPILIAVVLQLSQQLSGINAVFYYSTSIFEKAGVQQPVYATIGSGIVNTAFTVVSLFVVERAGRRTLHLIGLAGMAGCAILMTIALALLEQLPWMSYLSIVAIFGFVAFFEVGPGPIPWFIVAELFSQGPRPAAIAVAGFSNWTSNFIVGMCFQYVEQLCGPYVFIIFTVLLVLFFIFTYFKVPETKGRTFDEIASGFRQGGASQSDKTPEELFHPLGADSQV
# hGLUT1 [2] = molecular target: T1, hGLUT1; conditions: known hGLUT1 inhibitors; cited from earlier work
SMILES,IC50 (hGLUT1 [1]) [µM],LE (ligand efficiency) (hGLUT1 [2]) [kcal/mol/HA]
"O=C(CCc1ccc(O)cc1)c1c(O)cc(O)cc1O[C@@H]1O[C@H](CO)[C@@H](O)[C@H](O)[C@H]1O [PUG-5, phlorizin]",23,–
C=C1[C@@H](C)[C@H]2[C@H](Cc3ccccc3)NC(=O)[C@]23OC(=O)/C=C/[C@H](O)CCC[C@@H](C)C/C=C/[C@H]3[C@@H]1O [cytochalasin B],–,0.265
C=C[C@@]1(C)CC(=O)[C@]2(O)[C@@]3(C)[C@@H](O)CCC(C)(C)[C@@H]3[C@H](O)[C@H](OC(C)=O)[C@@]2(C)O1 [forskolin],–,0.270
